In patent publication US20100138935A1, “Detection of cellular stress” (priority 2004, published 2010):

Tested on: HOZ mice
Test: Plasma AST as a marker of hepatotoxicity in HOZ mice
Format: in vivo, mouse
Protocol: Terminal blood samples were taken by cardiac puncture into lithium/heparin-coated tubes for preparation of plasma. Tissues, as defined in each protocol, were routinely dissected as follows:
Following removal into tubes suitable for plasma preparation, venous blood samples were mixed on a roller for 10 minutes then cooled on ice. Red blood cells were removed by centrifugation at 2,000 rpm for 10 minutes at 8-10° C. The supernatant (plasma) was transferred to a second tube and stored at −70° C. until required for analysis.
Plasma samples were analysed for appropriate analytes on a Roche autoanalyser (Cobas Integra 400) according to the manufacturer's instructions. The routine markers measured included: (for liver damage) plasma alanine aminotransferase (ALT), aspartate aminotransferase (AST) and alkaline phosphatase (ALP) and (for kidney damage) plasma creatinine and blood urea nitrogen (BUN).
Two plasma enzyme markers, ALT and AST, were used as markers of hepatotoxicity in HOZ mice treated with cadmium chloride or sodium arsenite. […]

In the case of `[Cl][Cd][Cl]` [Cadmium Chloride, cadmium chloride], the AST (HOZ mouse, 10 mg/kg i.p., 24 hours) is reported as 4643.1 U/L, the “Plasma AST” value (female, 1 mg/kg, 8 hours) is reported as 87.6 u/L and the “Plasma AST” value (female, 1 mg/kg, 24 hours) is reported as 87.5 u/L. For the same molecule, the “Plasma AST” value (female, 2 mg/kg, 8 hours) was 80.4 u/L, the “Plasma AST” value (female, 2 mg/kg, 24 hours) was 104.7 u/L and the “Plasma AST” value (female, 4 mg/kg, 8 hours) was 108.5 u/L. For the same molecule, the “Plasma AST” value (female, 4 mg/kg, 24 hours) was 89.1 u/L, the “increase in plasma AST” value (female, 4 mg/kg, at either time point (8, 24 hours)) was “no increase in plasma AST was observed” and the “Plasma AST” value (female, 8 mg/kg, 8 hours) was 13425.6 u/L. The “Plasma AST” value (female, 8 mg/kg, 24 hours) was 8097.6 u/L, the “increase in plasma AST” value (female, 8 mg/kg, after 8 hours) was 237 fold and the “increase in plasma AST” value (female, 8 mg/kg, after 24 hours) was 97 fold. For the same molecule, the “Plasma AST” value (male, 1 mg/kg, 8 hours) was 100.2 u/L, the “Plasma AST” value (male, 1 mg/kg, 24 hours) was 63.1 u/L and the “Plasma AST” value (male, 2 mg/kg, 8 hours) was 66.4 u/L. For the same molecule, the “Plasma AST” value (male, 2 mg/kg, 24 hours) was 56.4 u/L, the “Plasma AST” value (male, 4 mg/kg, 8 hours) was 132.3 u/L and the “Plasma AST” value (male, 4 mg/kg, 24 hours) was 123.0 u/L. The “Plasma AST” value (male, 8 mg/kg, 8 hours) was 92.4 u/L, the “Plasma AST” value (male, 8 mg/kg, 24 hours) was 353.8 u/L and the “increase in AST” value (male, 8 mg/kg, 24 hours after treatment) was 3.8 fold.
